We go through three compounds from patent US8569573B2 (priority 2007, dated 2013).

For series [1], the system named is human drug metabolism genes. Description: Induction of mRNAs involved in drug metabolism in cultured hepatocytes from chimeric mice (real-time PCR). From the text: (§1) The basal expression and induction of human liver specific genes in chimeric mice was examined. […] Primers, obtained from Applied Biosystems, were specific for human CYP1A1 (Hs00153120_m1), CYP1A2 (Hs00167927_m1), CYP3A4 (Hs00430021_m1), CYP3A7 (Hs00426361_a1), CYP2B6 (Hs00167937_g1), CYP2D6 (Hs00164385_a1), Multidrug resistance associated protein MRP2 (Hs00166123_m1), Bile Salt export Pump BSEP, (Hs00184829_m1), CAR (Hs00231959_m1) Albumin (Hs00609411_m1), HNF4α (Hs00230853_m1), Cyclophillin (Hs99999904_m1) and mouse actin (Ma00607939_s1).
(§2) Cultures of isolated hepatocytes were established and exposed to prototypical inducers of the cytochrome P450 genes. […] In addition to the mRNA expression levels of human drug metabolism genes, the enzymatic activity of the human CYP1A and 3A family members were measured. Ethoxyresorufin-O-deethylase activity (EROD) is known to be mediated by CYP1A1 and 1A2 in human liver.
For orientation: Quantitative PCR measures a nucleic acid by following its amplification.

In a further series the test system is CYP1A1 and 1A2. Description: Ethoxyresorufin-O-deethylase (EROD) activity on cultured hepatocytes from humanized FRG mouse liver. The conditions noted are these: humanized mouse liver cells, FIG. 6a. In kind it is cell-based, human.
The next series deals with FRG mice. Description: Maintenance of FRG mice with NTBC in drinking water and NTBC withdrawal. In kind it is in vivo, mouse. From the text:
Several strains of immune-deficient Fah knockout mice were generated. Crossing the Fah mutation onto nude, nod/scid or Rag1^−/− backgrounds was unsuccessful. To generate an immunodeficient Fah^−/− mouse strain completely lacking T cells, B cells and NK cells, but without a DNA repair defect, Fah^−/−/Rag2^−/−/Il2rg^−/− (FRG) mice were generated. Male Fah^−/−129S4 mice (Grompe et al. Genes Dev. 7:2298-2307, 1993) were crossed with female Rag2^−/−/Il2rg^−/− mice (Taconic). All animals were maintained with drinking water containing 2-(2-nitro-4-trifluoro-methyl-benzoyl)-1,3 cyclohexanedione (NTBC) at a concentration of 1.6 mg/L (Grompe et al. Nat. Genet. 10:453-460, 1995). To confirm the genotypes of each animal, PCR-based genotyping was carried out on 200 ng genomic DNA isolated from toe tissue (Grompe et al. Genes Dev. 7:2298-2307, 1993; Traggiai et al. Science 304:104-107, 2004).

The test system of a further series is CYP3A4. Kind of series: Conversion of testosterone to 6-beta-hydroxyltestosterone in cultured hepatocytes from humanized FRG mouse liver. The conditions noted are these: cultured hepatocytes from repopulated FRG livers, FIG. 6b.
Source text: as §1, §2

As to `O=c1cc(-c2ccccc2)oc2ccc3ccccc3c12` [BNF, beta-naphthoflavone], the “pattern of genes induced” value in series [1] (cultured hepatocytes from chimeric mice, FIG. 7) was “as expected from normal human cells”. The “EROD activity after prior exposure to inducer” value in the series on CYP1A1 and 1A2 was “specifically and robustly induced”.
In the case of `O=C1CCCC(=O)C1C(=O)c1ccc(C(F)(F)F)cc1[N+](=O)[O-]` [NTBC, 2-(2-nitro-4-trifluoro-methyl-benzoyl)-1,3 cyclohexanedione], in the series with FRG mice (FRG mice, gradual hepatocellular injury after withdrawal), the “time to death after NTBC withdrawal” value is 4-8 weeks. In addition, the “growth and fertility of FRG mice” value in the series on FRG mice (NTBC continuously in drinking water, 1.6 mg/L) is “grew well and were fully fertile”.
In the case of `CCC1(c2ccccc2)C(=O)NC(=O)NC1=O` [PB, phenobarbital], the “induction of CYP3A4 mRNA” value in series [1] (relative to non-induced cultures, FIG. 7b) is listed as “even more striking than at the enzyme level”. Further, the “conversion of testosterone to 6-beta-hydroxyltestosterone after prior exposure to inducer” value with CYP3A4 is on record as “specifically induced”.
